Test system: MDA-MB-157 spheroids
Experiment: Viability of ATPS-generated cancer cell spheroids treated with cisplatin (PRESTO BLUE enzymatic assay)
Assay type: cell-based
Conditions: cisplatin 25 to 200 μM, four days incubation
From the text: Component 1 contains 5%(w/w) polyethylene glycol (PEG, Mw: 35,000) and component 2 contains 12.8%(w/w) Dextran (DEX, Mw: 500,000). […] First, the PEG phase is loaded into wells of a well plate (destination plate) and this plate is placed on the work surface of a robotic liquid handler (FIG. 2). Then cells are harvested from a culture dish, mixed with the DEX phase at a 1:1 volumetric ratio to reduce DEX concentration to 6.4% (w/w), and loaded into a second plate (source plate). This plate is also placed on the work surface of the liquid handler. Pipette tips are mounted onto the dispense head of the liquid handler (FIG. 3) and are immersed into the source plate to load a defined volume (˜0.3 microliters) of the cell suspension in DEX phase. After retraction from the source plate, pipette tips are lowered into the destination plate and dispense their content. Dispensed solution forms a single droplet containing cells in each well and the droplet remains immiscible from its surrounding PEG phase (FIG. 4a). Cells aggregate and form an individual spheroid in each well (FIG. 4b and FIG. 5). […] The drug, diluted with culture media, was renewed once by the addition of 50 μL after two days of incubation.

N.N.[Cl][Pt][Cl] [cisplatin]
percent viability trend against drug concentration: gradual decrease as the cisplatin concentration increases
